Experimental findings from ChEMBL document CHEMBL1130430, “Assessment of solvation effects on calculated binding affinity differences: trypsin inhibition by flavonoids as a model system for congeneric series” (J Med Chem, 1997) are described below.

Each structure is given as a SMILES string.

The target in experiment [1] is T1, Serine protease 1 (Bos taurus, UniProt P00760).
T1 sequence (P00760 whole entry): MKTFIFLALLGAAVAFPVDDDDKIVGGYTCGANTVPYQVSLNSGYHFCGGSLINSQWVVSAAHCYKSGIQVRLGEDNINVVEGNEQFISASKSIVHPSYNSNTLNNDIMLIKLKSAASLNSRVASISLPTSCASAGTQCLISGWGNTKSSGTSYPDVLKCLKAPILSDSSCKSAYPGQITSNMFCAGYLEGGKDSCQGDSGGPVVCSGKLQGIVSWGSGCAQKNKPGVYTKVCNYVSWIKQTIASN
As to the kind of experiment: Inhibitory concentration of the compounds against Bovine trypsin enzyme.

Experiment [2] can be described thus: Disassociation constant (KI) was obtained from Cheng and Prusoff equation for quercetin trypsin complex.

For `O=c1c(O)c(-c2ccc(O)cc2O)oc2cc(O)cc(O)c12` [MORIN], in experiment [1], the IC50 was 111 µM. The same compound came in with a Ki in experiment [2] of 30.9 µM.

With `O=c1c(O)c(-c2ccc(O)c(O)c2)oc2cc(O)cc(O)c12` [QUERCETIN], the Ki in experiment [2] came out at 1.98 µM. In other words, the single-digit micromolar range.

The compound `O=c1cc(-c2ccc(O)cc2)oc2cc(O)cc(O)c12` [APIGENIN] came in with an IC50 in experiment [1] of 142 µM. Further, the Ki in experiment [2] was determined as 39.5 µM. In turn, `O=c1c(O)c(-c2cc(O)c(O)c(O)c2)oc2cc(O)cc(O)c12` [MYRICETIN] showed a half-inhibitory concentration (IC50) in experiment [1] of 10.2 µM. For the same compound, in experiment [2], the Ki came to 2.84 µM. In experiment [1], `COc1cc([C@@H]2Oc3c(O)cc([C@H]4Oc5cc(O)cc(O)c5C(=O)[C@@H]4O)cc3[C@H]2CO)ccc1O` [SILICRISTIN] had an IC50 of 144 µM. The compound further yielded a Ki in experiment [2] of 40.3 µM.

For the compound `O=c1c(O)c(-c2ccc(O)cc2)oc2cc(O)cc(O)c12` [KAEMPFEROL], the IC50 in experiment [1] worked out at 106 µM. The compound further showed a Ki in experiment [2] of 29.5 µM. Consider `O=c1cc(-c2ccc(O)c(O)c2)oc2cc(O)cc(O)c12` [LUTEOLIN], for which it took 35.3 µM to reach half-maximal inhibition in experiment [1] (IC50). In addition, the affinity in experiment [2] corresponds to a Ki of 9.84 µM.
